Reference: patent publication US20220002268A1, “NOVEL HETEROARYL-TRIAZOLE AND HETEROARYL-TETRAZOLE COMPOUNDS AS PESTICIDES” (Bayer Aktiengesellschaft, priority 2019, published 2022)

What was measured:
Phaedon cochleariae = Phaedon cochleariae spray test; assay type: in vivo; settings: 168 h, after 7 days
Protocol: Phaedon cochleariae—Spray Test Solvent: 78.0 parts by weight of acetone • • 1.5 parts by weight of dimethylformamide Emulsifier: alkylarylpolyglycol ether
(§1) To produce a suitable preparation of active compound, 1 part by weight of active compound is mixed with the stated amount of solvents and is diluted with water, containing an emulsifier concentration of 1000 ppm, to the desired concentration. Further test concentrations are prepared by dilution with emulsifier containing water.
Chinese cabbage (Brassica pekinensis) leaf disks are sprayed with a preparation of the active ingredient of the desired concentration. Once dry, the leaf disks are infested with mustard beetle larvae (Phaedon cochleariae).
After 7 days mortality in % is determined. 100% means all beetle larvae have been killed and 0% means none of the beetle larvae have been killed.

Meloidogyne incognita = Meloidogyne incognita test; assay type: in vivo; settings: 20 ppm, after 14 days
Protocol: Meloidogyne incognita—Test Solvent: 125.0 parts by weight of acetone
(§2) To produce a suitable preparation of active compound, 1 part by weight of active compound is mixed with the stated amount of solvent, and the concentrate is diluted with water to the desired concentration.
Vessels are filled with sand, a solution of the active ingredient, a suspension containing eggs and larvae of the southern root-knot nematode (Meloidogyne incognita) and salad seeds. The salad seeds germinate and the seedlings grow. Galls develop in the roots.
After 14 days the nematicidal activity is determined on the basis of the percentage of gall formation. 100% means no galls were found and 0% means the number of galls found on the roots of the treated plants was equal to that in untreated control plants.

Spodoptera frugiperda = Spodoptera frugiperda spray test; assay type: in vivo; settings: 168 h, after 7 days
Protocol: Suodontera frugiuerda—Spray Test Solvent: 78.0 parts by weight acetone • 1.5 parts by weight dimethylformamide Emulsifier: alkylarylpolyglycol ether
as §1
Maize (Zea mays) leaf sections are sprayed with a preparation of the active ingredient of the desired concentration. Once dry, the leaf sections are infested with fall armyworm larvae (Spodoptera frugiperda).
After 7 days mortality in % is determined. 100% means all caterpillars have been killed and 0% means none of the caterpillars have been killed.

Boophilus microplus = Boophilus microplus injection test; assay type: in vivo; settings: Rhipicephalus microplus, 168 h; 20 gg/animal, injection into abdomen, after 7 days; read-out: efficacy (infertile eggs)
Protocol: Boophilus microplus—Injection Test Solvent: dimethyl sulfoxide To produce a suitable preparation of active compound, 10 mg of active compound are dissolved in 0.5 ml solvent, and the concentrate is diluted with solvent to the desired concentration. Five adult engorged female ticks (Boophilus microplus) are injected with 1 μl compound solution into the abdomen. The ticks are transferred into replica plates and incubated in a climate chamber. After 7 days egg deposition of fertile eggs is monitored. Eggs where fertility is not visible are stored in a climate chamber till hatching after about 42 days. An efficacy of 100% means all eggs are infertile; 0% means all eggs are fertile.

Diabrotica balteata = Diabrotica balteata spray test; assay type: in vivo; settings: 168 h, 160 gg/well, after 7 days, read-out: efficacy (seedlings grown)
Protocol: Diabrotica balteata—Spray Test Solvent: 78.0 parts by weight of acetone • • 1.5 parts by weight of dimethylformamide Emulsifier: alkylarylpolyglycol ether
(§3) To produce a suitable preparation of active compound, 1 part by weight of active compound is mixed with the stated amount of solvent, and the concentrate is diluted with water, containing an emulsifier concentration of 1000 ppm, to the desired concentration. Further test concentrations are prepared by dilution with emulsifier containing water.
Soaked wheat seeds (Triticum aestivum) are placed in a multiple well plate filled with agar and some water and are incubated for 1 day to germinate (5 seeds per well). The germinated wheat seeds are sprayed with a test solution containing the desired concentration of the active ingredient. Afterwards each unit is infected with 10-20 larvae of the banded cucumber beetle (Diabrotica balteata).
After 7 days efficacy in % is determined. 100% means all the seedlings have grown up like in the untreated, uninfected control; 0% means none of the seedlings have grown.

Myzus persicae = Myzus persicae oral test; assay type: in vivo; settings: 120 h, after 5 days
Protocol: Myzus persicae—Oral Test Solvent: 100 parts by weight acetone
as §2
50 μl compound solution is filled in microtiter plates and 150 μl IPL41 insect medium (33%+15% sugar) is added to obtain a total volume of 200 μl per well. Afterwards the plates are sealed with parafilm through which a mixed population of the green peach aphid (Myzus persicae) can suck on the compound preparation.
After 5 days mortality in % is determined. 100% means all aphids have been killed and 0% means none of the aphids have been killed.

Ctenocephalides felis [1] = assay: Ctenocephalides felis oral test; assay type: in vivo; settings: 48 h, 100 ppm in cattle blood, after 2 days
Protocol: Ctenocephalides felis—Oral Test Solvent: dimethyl sulfoxide
To produce a suitable preparation of active compound, 10 mg of active compound are dissolved in 0.5 ml solvent, and the concentrate is diluted with cattle blood to the desired concentration.
Approximately 20 adult unfed cat fleas (Ctenocephalides felis) are placed in flea chambers. The blood chamber, sealed with parafilm on the bottom, are filled with cattle blood supplied with compound solution and placed on the gauze covered top of the flea chamber, so that the fleas are able to suck the blood. The blood chamber is heated to 37° C. whereas the flea chamber is kept at room temperature.
After 2 days mortality in % is determined. 100% means all the fleas have been killed; 0% means none of the fleas have been killed.

Nilaparvata lugens = Nilaparvata lugens spray test; assay type: in vivo; settings: 96 h, after 4 days
Protocol: Nilaparvata lugens—Spray Test Solvent: 78.0 parts by weight of acetone • • 1.5 parts by weight of dimethylformamide Emulsifier: alkylarylpolyglycol ether
as §1
Rice plants (Oryza sativa) are sprayed with a preparation of the active ingredient of the desired concentration and the plants are infested with the brown planthopper (Nilaparvata lugens).
After 4 days mortality in % is determined. 100% means all planthoppers have been killed and 0% means none of the planthoppers have been killed.

Nezara viridula = Nezara viridula spray test; assay type: in vivo; settings: 96 h, after 4 days
Protocol: Nezara viridula—Spray Test Solvent: 78.0 parts by weight of acetone • • 1.5 parts by weight of dimethylformamide Emulsifier: alkylarylpolyglycol ether
as §3
Barley plants (Hordeum vulgare) infested with larvae of the southern green stink bug (Nezara viridula) are sprayed with a test solution containing the desired concentration of the active ingredient.
After 4 days mortality in % is determined. 100% means all the stink bugs have been killed; 0% means none of the stink bugs have been killed.

[2] = tested on: Aedes aegypti strain MONHEIM; assay: Aedes aegypti test (AEDSAE surface treatment & contact assay); assay type: in vivo; settings: surface concentration 20 mg/m^2, 30 minutes exposure, 24 hours after contact, read-out: efficacy (mortality)
Protocol: Aedes aegyti Test (AEDSAE Surface Treatment & Contact Assay) Solvent: Aceton+2000 ppm rapeseed oil methyl ester (RME)
In order to produce a sufficient, active ingredient containing solution it is necessary to solve the test compound in the solvent-mix (acetone at 2 mg/ml/RME 2000 ppm). This solution is pipetted onto a glazed tile and after evaporation of the acetone, adult mosquitoes of the species Aedes aegypti strain MONHEIM are placed onto the dried surface. The exposure time is 30 minutes.
(§4) Mortality in percent (%) is determined 24 hours after contact to the treated surface. 100% mortality means that all tested insects are dead, whereas 0% means that no insect died.

Rhipicephalus sanguineus = Rhipicephalus sanguineus in-vitro contact test, adult brown dog ticks; assay type: in vivo; settings: 5 gg/cm^2, after 48 hours
Protocol: (§5) 9 mg compound is solved in 1 ml acetone and diluted with acetone to the desired concentration. 250 μl of the test solution is filled in 25 ml glass test tubes and homogeneously distributed on the inner walls by rotation and tilting on a shaking device (2 h at 30 rpm). With a compound concentration of 900 ppm, an inner surface of 44.7 cm^2 and a homogeneous distribution, a dose of 5 μg/cm^2 is achieved.
After the solvent has evaporated, each test tube is filled with 5-10 adult brown dog ticks (Rhipicephalus sanguineus), closed with a perforated lid and incubated in a lying position at room temperature and relative humidity. After 48 hours efficacy is determined. The ticks are patted on the ground of the tubes and are incubated on a heating plate at 45-50° C. for at most 5 minutes. Immotile or uncoordinated moving ticks, which are not able to escape the heat by climbing upwards, are marked as dead or moribund.
An efficacy of 100% means all ticks are dead or moribund; 0% means no ticks are dead or moribund.

[3] = tested on: Culex quinquefasciatus strain P00; assay: whole plant or invertebrate; assay type: in vivo; settings: read-out: efficacy (mortality)
Protocol: Culex quinquefasciatus Test (CULXFA Surface Treatment & Contact Assay) Solvent: Aceton+2000 ppm rapeseed oil methyl ester (RME)
In order to produce a sufficient, active ingredient containing solution it is necessary to solve the test compound in the solvent-mix (acetone at 2 mg/ml/RME 2000 ppm). This solution is pipetted onto a glazed tile and after evaporation of the acetone, adult mosquitoes of the species Culex quinquefasciatus strain P00 are placed onto the dried surface. The exposure time is 30 minutes.
as §4

Ctenocephalides felis [4] = assay: Ctenocephalides felis in-vitro contact test, adult cat flea; assay type: in vivo; settings: 5 μg/cm^2, after 48 hours
Protocol: as §5
After the solvent has evaporated, each test tube is filled with 5-10 adult cat fleas (Ctenocephalides felis), closed with a perforated lid and incubated in a lying position at room temperature and relative humidity. After 48 hours efficacy is determined. The fleas are patted on the ground of the tubes and are incubated on a heating plate at 45-50° C. for at most 5 minutes. Immotile or uncoordinated moving fleas, which are not able to escape the heat by climbing upwards, are marked as dead or moribund.
An efficacy of 100% means all fleas are dead or moribund; 0% means no fleas are dead or moribund.

[5] = tested on: Anopheles funestus strain FUMOZ-R; assay: whole plant or invertebrate; assay type: in vivo; settings: read-out: efficacy (mortality)
Protocol: Anopheles funestus Test (ANPHFU Surface Treatment & Contact Assay) Solvent: Aceton+2000 ppm rapeseed oil methyl ester (RME)
In order to produce a sufficient, active ingredient containing solution it is necessary to solve the test compound in the solvent-mix (acetone at 2 mg/ml/RME 2000 ppm). This solution is pipetted onto a glazed tile and after evaporation of the acetone, adult mosquitoes of the species Anopheles funestus strain FUMOZ-R (Hunt et al., Med. Vet. Entomol. 2005 September; 19(3): 271-275) are placed onto the dried surface. The exposure time is 30 minutes.
as §4

Tetranychus urticae = Tetranychus urticae spray test OP-resistant; assay type: in vivo; settings: 144 h, after 6 days
Protocol: Tetranychus urticae—Spray Test OP-Resistant Solvent: 78.0 parts by weight acetone • 1.5 parts by weight dimethylformamide Emulsifier: alkylarylpolyglycol ether
as §1
French bean (Phaseolus vulgaris) leaf disks infected with all instars of the two spotted spidermite (Tetranychus urticae), are sprayed with a preparation of the active ingredient of the desired concentration.
After 6 days mortality in % is determined. 100% means all spider mites have been killed and 0% means none of the spider mites have been killed.

[6] = log P by HPLC on reversed phase, acidic range; assay type: physicochemical; settings: reversed phase HPLC column, LC-UV, 0.1% formic acid in water and acetonitrile
Protocol: (§6) Measurement of log P values was performed according to EEC directive 79/831 Annex V.A8 by HPLC (High Performance Liquid Chromatography) on reversed phase columns with the following methods. […] Calibration was done with straight-chain alkan-2-ones (with 3 to 16 carbon atoms) with known log P values (measurement of log P values using retention times with linear interpolation between successive alkanones). Lambda-max-values were determined using UV-spectra from 200 nm to 400 nm and the peak values of the chromatographic signals.

[7] = log P by HPLC on reversed phase, neutral range; assay type: physicochemical; settings: reversed phase HPLC column, LC-UV, 0.001 molar ammonium acetate solution in water and acetonitrile
Protocol: as §6, with “methods. Instrument(s): Agilent 1100 LC system, Agilent MSD system, HTS PAL; Waters IClass Acquity UPLC, SQD2 (MS), PDA (UV).” for “methods.”

| Compound | mortality at 500 g/ha (Phaedon cochleariae) [%] | mortality at 500 g/ha (Spodoptera frugiperda) [%] | pest or weed control at 0.02 mg (Boophilus microplus) [%] | pest or weed control at 160 µg/well (Diabrotica balteata) [%] | mortality at 20 ppm (Myzus persicae) [%] | mortality at 100 ppm (Ctenocephalides felis [1]) [%] | mortality at 20 mg/m2 [2] [%] | further results |
| --- | --- | --- | --- | --- | --- | --- | --- | --- |
| O=C(c1cc(Cl)cc(C(F)(F)F)c1)N(Cc1ncnn1-c1ncccn1)CC1CC1 [Example I-001, 3-Chloro-N-(cyclopropylmethyl)-N-{[1-(pyrimidin-2-yl)-1H-1,2,4-triazol-5-yl]methyl}-5-(trifluoromethyl)benzamide] | 100 | 100 | 100 | 100 | 100 | 95 | – | nematicidal activity (gall formation) (Meloidogyne incognita): 90% |
| O=C(c1cc(C(F)(F)F)cc(C(F)(F)F)c1)N(Cc1ncnn1-c1ncccn1)CC1CC1 [Example I-004] | 100 | 100 | 100 | 100 | 100 | 100 | 85 to 100 | mortality at 500 g/ha (Nilaparvata lugens): 100%; mortality at 500 g/ha (Nezara viridula): 100% |
| O=C(NCc1ncnn1-c1ncccn1)c1cc(Cl)cc(C(F)(F)F)c1 [Example I-005] | 100 | 100 | 100 | 100 | 100 | 100 | 85 to 100 | efficacy (ticks dead or moribund) (Rhipicephalus sanguineus): 100%; mortality at 4 mg/m2 [3]: 85 to 100%; mortality at 20 mg/m2 [3]: 85 to 100%; efficacy (fleas dead or moribund) (Ctenocephalides felis [4]): 100%; mortality at 4 mg/m2 [5]: 85 to 100%; mortality at 20 mg/m2 [5]: 85 to 100% |
| O=C(NC1(c2ncnn2-c2ncccn2)CC1)c1cc(Cl)cc(OC(F)(F)F)c1 [Example I-016] | – | – | – | – | – | – | – | mortality at 500 g/ha (Tetranychus urticae): 90% |
| c1cnc(-n2ncnc2CNCC2CC2)nc1 [a-001, 1-cyclopropyl-N-{[1-(pyrimidin-2-yl)-1H-1,2,4-triazol-5-yl]methyl}methanamine] | – | – | – | – | – | – | – | chromatographic logP [6]: 0.83; chromatographic logP [7]: 0.83 |
